Measurements published in US9023336B2, “Deuterium-enriched aldehydes” (Protia, LLC, priority 2013, dated 2015).

Test: Measurement of aldehyde oxidations (air autoxidation of aldehyde to carboxylic acid)
Format: physicochemical
Conditions: for amount of aldehyde remaining / loss of aldehyde: after 24 hours; for amount of aldehyde remaining: aldehyde 1 mmol in triacetin 2.0 mL + water 0.10 mL, stirred at room temperature under air, HPLC (benzaldehyde) or GC (hexanal); for loss of aldehyde: triacetin/water, room temperature, air
Description: General Procedure for Measurement of Aldehyde Oxidations
To a 12 mL clear, colorless, glass vial, fitted with a stir bar, was added the aldehyde (1 mmol), triacetin (2.0 mL), and water (0.10 mL, purified by reverse osmosis). The top of the vial was covered with a tissue and the mixture was stirred vigorously at room temperature. In the benzaldehyde reactions, (both H and D), 4.0 μL aliquots were withdrawn at 0, 0.5, 18, 25, 96, and 120 hour time points. These were diluted with ethanol (1.0 mL), and analyzed by HPLC. […] These were diluted with ethanol (1.0 mL) and analyzed by GC.
Instruments and Conditions Used for Analysis:
High pressure liquid chromatography: Agilent XDB C18 50×4.6 mm 1.8 micron column
Solvent A—Water (0.1% TFA)
Solvent B—Acetonitrile (0.07% TFA)
Gradient—5 min 95% A to 95% B then 1 minute hold. 1.5 mL/min
UV Detection (integration) @ 210 and 254 nm
HP 6890GC Column=Agilent DB-5 15 m×0.25 mm capillary column.
35° C. start (2 min hold), ramping to 100° C. at 5° C. per minute
Flame Ion Detection (integration)

SMILES	amount of aldehyde remaining	loss of aldehyde [%]	reduction of autoxidation due to deuterium versus un-enriched aldehyde (after a period of approximately 24 hours)
[2H]C(=O)c1ccccc1 [benzaldehyde-D]	approximately 90%	10	over 50%
O=Cc1ccccc1 [benzaldehyde-H, benzaldehyde, reference compound]	approximately 30%	70	
